Assays:
[1] = Stability tests (storage, analysed by XRPD); type: physicochemical
Method: The sample was stored in the following conditions (a) 25° C. and 60% RH for 7 days and (b) 60° C. and 75% RH for 3 days. The samples were analyzed after the test by XRPD.

[2] = Thermogravimetric analysis (TGA); type: physicochemical; conditions: heating from 25° C. to 450° C. at 10K/min
Method: The analysis was carried out using the Mettler Toledo Stare System with the following parameters. The sample was weighed in an aluminum pan hermetically sealed with an aluminum pierced cover. The analysis was performed heating the sample from 25° C. to 450° C. at 10K/min.

[3] = Kellner et al., Nature (1967); cited from earlier work
[4] = reported in the literature; cited from earlier work

stability of the crystalline form (XRPD after storage) ([1]; 25° C. and 60% RH for 7 days) | stability of the crystalline form (XRPD after storage) ([1]; 60° C. and 75% RH for 3 days) | degradation of the sample (TGA profile) [2] | SMILES | antitumor effect [3] | solubility [4]
stable | stable | approximately 170 °C | O[C@H]([C@H](O)[C@@H](O)CBr)[C@H](O)CBr [crystalline DBD polymorph, 1,6-dibromo-1,6-dideoxy-dulcitol] | – | –
– | – | – | O[C@H]([C@H](O)[C@@H](O)CBr)[C@H](O)CBr [DBD, 1,6-dibromo-1,6-dideoxy-dulcitol] | selective a vigorous antitumor effect | poorly soluble
